Source: patent publication US8105798B2, “Cytoplasmic activity of retinoid X receptor and its regulation by ligands and dimerization” (The Burnham Institute, priority 2003, dated 2012)

Assays:
RARβ expression = test: RARβ protein expression by Western analysis in cancer cells; format: cell-based; settings: sulindac sulfide 100 μM, 24 hr
Protocol: The indicated cancer cells were treated for 24 h with or without trans-RA (10^-6 M), or 15d-PGJ2 (5.micro.M) or their combination. RARβ protein expression was determined by Western analysis.
The effect of sulindac sulfide on RXR transactivation was investigated for its effect of RARβ induction by all-trans-retinoic acid (tRA), which activates the RA response element (βRARE) in the RARβ promoter through an RAR/RXR heterodimer. […] The βRARE could be also activated by an RXR/PPAR heterodimer. […] Cells were treated for 24 hr with or without with trans-RA (10^-6 M), or SR11237 (10^-6 M), ciglitazone (10.micro.M), sulindac sulfide (100.micro.M) or the indicated combinations. RARβ protein expression was determined by Western analysis.

RXRα = molecular target: T1, RXRα (Homo sapiens, UniProt P19793); test: subcellular localization of RXRα by immunostaining / confocal microscopy; format: cell-based
T1 sequence (P19793 1-462): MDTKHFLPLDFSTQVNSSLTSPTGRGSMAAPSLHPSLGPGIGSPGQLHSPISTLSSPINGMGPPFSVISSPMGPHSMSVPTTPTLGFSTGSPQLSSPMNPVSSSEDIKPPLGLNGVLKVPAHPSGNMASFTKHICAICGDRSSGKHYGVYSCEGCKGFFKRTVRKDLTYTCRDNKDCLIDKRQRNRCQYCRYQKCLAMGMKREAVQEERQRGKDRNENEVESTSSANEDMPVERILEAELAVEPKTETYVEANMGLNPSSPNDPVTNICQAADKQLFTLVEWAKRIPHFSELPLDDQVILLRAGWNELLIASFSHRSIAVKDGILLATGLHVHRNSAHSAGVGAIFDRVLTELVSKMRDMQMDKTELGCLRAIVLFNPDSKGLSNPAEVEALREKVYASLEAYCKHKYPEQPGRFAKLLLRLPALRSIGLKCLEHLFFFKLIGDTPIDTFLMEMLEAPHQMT
Protocol: Expression vector for Flag-RXRα was transfected into the indicated cell line. Cells were then treated with 15d-PGJ2 (5.micro.M) for 3 hr, then immunostained with anti-Flag antibody to detect RXRα Flag-RXRα was visualized by confocal microscopy.
Expression vectors for Flag-RXRα and GFP-TR3 were transfected into PC12 cells alone or together. Cells were then treated with 15d-PGJ2 (5.micro.M) for 3 hr, then immunostained with anti-Flag antibody to detect RXRα Flag-RXRα and GFP-TR3 were visualized by confocal microscopy, and their images merged.
Cos7 cells were transfected with GFP-RXRα and Mito-REP, and treated with or without 10^-4 M indomethacin or diclofenac for 4 hours. The distribution of GFP-RXRα and Mito-REP was visualized by confocal microscopy.
For example, cells such as LNCaP prostate cancer cells are induced to apoptosis using agents such as the phorbol ester, TPA (12-0-tetradecanolphorbol 13-acetate, Cell Signaling Technology Cat. No.: 9905).
For example, heat shock protein 60 (Hsp60) is a mitochondrial specific protein. […] The treated cells are then incubated with a conjugated secondary antibody and visualized using confocal microscopy. In this example, Cy-3 or FITC conjugated secondary antibodies were used for visualizing the sub-cellular localization of RXRα or Hsp60, respectively.
A GFP-RXRα expression vector was transfected into COS-7 cells and GFP-RXRα was expressed.
A fusion protein created by combining GFP and amino acids 348-398 of RXRα, is transfected into HEK293T cells.
To determine the role of 15d-PGJ2 binding on the new RXR pathway, a confocal microscopy analysis was performed to determine subcellular localization of RXRα in the presence or absence of 15d-PGJ2.
Because RXR heterodimerizes with TR3, Inventor examined the effect of 15d-PGJ2 on TR3 subcellular localization in PC12 phaeochromocytoma cells.
To determine the mechanism of RXRα mediated apoptosis in the presence of sulindac sulfide, Inventors examined the effect of sulindac sulfide on subcellular localization of RXRα

RXR.alpha = molecular target: T2, RXR.alpha (Homo sapiens, UniProt P19793); test: isothermal titration calorimetry (ITC); format: binding; settings: data not shown
T2 sequence (P19793 1-462): T1 sequence (P19793 1-462)
Protocol: ITC is a thermodynamic technique for monitoring the binding reaction of two components. When a protein binds a ligand, heat is either generated or absorbed, and quantitation of this heat allows very accurate determination of the binding dissociation constant (kD), reaction stoichiometry (n), enthalpy and entropy. Heat effects a small as 0.2.micro.cal can be measured and titrations can be done on as little as 1 ml of a dilute solution. (See generally, Pierce, M. M., Raman, C. S., and Nall, B. T., Methods, (1999) 19: 213-21)

RXRα LBD protein = molecular target: T3, RXRα LBD protein (Homo sapiens, UniProt P19793); test: sensitivity of RXRα protein to chymotrypsin digestion; format: biochemical; settings: 100 μM sulindac sulfide
T3 construct: made in house; host or cells: E. coli BL21 (pET vector, Novagen)
T3 sequence (P19793 224-462): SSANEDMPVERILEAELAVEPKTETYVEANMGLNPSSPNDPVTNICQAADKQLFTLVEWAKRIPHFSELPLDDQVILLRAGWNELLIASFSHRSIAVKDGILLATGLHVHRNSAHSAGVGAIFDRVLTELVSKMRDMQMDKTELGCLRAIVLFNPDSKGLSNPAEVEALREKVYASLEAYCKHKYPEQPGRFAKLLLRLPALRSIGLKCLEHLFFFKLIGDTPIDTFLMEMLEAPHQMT
Protocol: (FIG. 12b). LBD protein was incubated in the absence (DMSO) or presence of sulindac sulfide (100.micro.M) and then subjected to digestion by chymotrypsin for 30 min. Briefly, SEQ ID No.: 11 was cloned into the pET vector system available from Novagen and the recombinant vector was transformed into and expressed in BL21 cells. Digested reactions were separated by SDS-PAGE and visualized by Commassie blue staining. 35^S RXR protein was incubated for 30 minutes at room temperature in the presence or absence of 100.micro.M sulindac sulfide. Chymotrypsin was then added to a series of labeled protein reactions at final concentrations of 0, 37.5, 75, 150 and 300.micro.g per ml, and digestion proceeded for 20 minutes.

[1] = test system: CV-1, MGC80-3, HEK293T and HCT116 cells; test: apoptosis determined by DAPI staining; format: cell-based; settings: 75 μM, 24 hr
Protocol: To determine the involvement of RXRα in sulindac sulfide-induced apoptosis of cancer cells, its effect on apoptosis of CV-1 cells (available from American Type Cell Culture, Manassas, Va., as accession number CCL-70) in the absence or presence of RXRα transfection was evaluated. FIG. 13a. RXR was cloned into a pGFP.C2 vector (GenBank Accession #: U19281) according to the procedure of Li et al., Science 289, 1159-1164 (2000). CV-1 cells were transfected with or without RXRα prior to treatment with sulindac sulfide (75.micro.M) for 24 hr. […] Louis, Mo., as catalogue number D9542), and the presence of nuclear fragmentation and/or chromatin condensation is an indicator of apoptosis. […] The requirement of RXRαwas also examined using RXRα siRNA SEQ ID No.: 12 approach. MGC80-3 cells, HEK293T (ATCC, accession number CCL-1573) and HCT116 (ATCC, accession number CCL-247) cell lines were transfected with RXRα siRNA or control siRNA using oligofectamine (from Invitrogen, Corp). Cell samples from each cell line were lysed and the cell extracts were prepared by immunoblotting to determine RXRα expression. Cells transfected with RXR.alpha siRNA or control siRNA were treated with sulindac sulfide (75.micro.M) for 24 hr, and apoptosis was determined by DAPI staining.

endogenous RXRα localization (RXRα; Calu-6, H460, LNCaP, ZR-75-1, MGC80-3 and HEK293T cells, 75 μM, 6 hr): found mainly in the cytoplasm
transfected RXRα localization (RXRα; HEK293T cells, sulindac sulfide): found in the cytoplasm
binding to RXR.alpha by ITC (RXR.alpha): confirmed the binding
SMILES: CSc1ccc(/C=C2/C(C)=C(CC(=O)O)c3cc(F)ccc32)cc1 [sulindac sulfide]
inducing effect of tRA on RARβ (RARβ expression; ZR-75-1 and Calu-6 cells, trans-RA 10^-6 M): effectively suppressed
activation of RXR/PPAR heterodimer by SR11237 and ciglitazone (RARβ expression) (RARβ expression; SR11237 10^-6 M, ciglitazone 10 μM): effectively inhibited
RXRα mitochondrial localization (RXRα; H460, MGC80-3 and LNCaP cells, 75 μM, 6 hr): results in RXRα mitochondrial localization
sensitivity of RXRα protein to chymotrypsin (RXRα LBD protein): modulation of sensitivity of RXRα protein to chymotrypsin
apoptosis, cells transfected with RXRα ([1]; CV-1 cells, DAPI staining): extensive apoptosis
apoptosis in cells transfected with RXRα siRNA versus control siRNA ([1]; MGC80-3, HEK293T and HCT116 cells): significant reduction of apoptosis
